Legend:
mice = experiment: LPS induced sepsis in mice, second protocol, UBE i.p.; assay type: in vivo; conditions: for survival of the mice treated: repeated after 24 hours, 50 hours post LPS injection, FIG. 20A
Description: In a second protocol, mice were injected i.p. with LPS (dissolved in saline solution) at a dose of 1.2 mg/mouse, followed by i.p. injection of UBE at a dose of 1.0 or 10.0 μg/kg after 30 minutes. UBE treatment was repeated after 24 hours (n=4 for UBE-treated groups and n=5 for controls).

T-lymphocytes = experiment: Lymphocyte proliferation in vitro (viable cell count, trypan blue); assay type: cell-based, female C57B1/6 mice; conditions: 96 hours incubation; FIG. 17
Description: T-lymphocytes were harvested from lymph nodes of female C57B1/6 mice by standard methodology and seeded (1.3×10^6 cells/ml) in 96 well plate […]. Thereafter, UBE was added to the culture at the indicated concentrations and incubated for 96 hours (6% CO2, 37° C.). The medium containing the polypeptide was replaced after 48 hours of incubation. Viable cells (trypan blue staining) were counted a light microscope.

Male CD1 mice = experiment: Carrageenan-induced hind paw swelling; assay type: in vivo; conditions: UBE injected thirty minutes before carrageenan; swelling after 3 hours versus prior to carrageenan; FIG. 1
Description: Male CD1 mice were intravenously (i.v.) injected with the indicated doses of the UBE polypeptide having the sequence […] (SEQ ID NO:2). Thirty minutes thereafter, each animal was injected with carrageenan (50 μl of 3 mg/ml into each hindpaw). The animals were evaluated for the difference between the degree of swelling (mm) after 3 hours and prior to carrageenan injection.

Human CD4 cells = experiment: Cytokine profile in human CD4+ cells activated with anti CD3 and anti CD28 antibodies (Multiplex); assay type: cell-based; conditions: UBE 100 ng/ml, 72 hours
Description: Human CD4 cells were MACS separated from blood of healthy donors using the immunomagnetic separation system of Miltenyi, in accordance with manufacturer instructions. Cells were incubated (each well contained 0.5×106/0.5 ml) with human IL2 (100 U/ml) and human anti CD3 antibodies (1 ug/ml) and human anti CD28 antibodies (1 ug/ml) with or without UBE (100 ng/ml) for 72 hours in a CO2 (6%) incubator at 37° C. in multiwall plates. Thereafter plates were centrifuged and supernatants were collected and stored at −20° C. until cytokine analysis was conducted. Cytokines were determined by Multiplex system (BioRad). *p<0.02, **p<0.006 using students t-test for comparison between UBE-treated and control cells.

arthritic mice = experiment: Collagen type II induced arthritis, joint swelling; assay type: in vivo; conditions: 1 μg/kg thrice a week, from five days after second immunization; FIG. 16
Description: Chick collagen type II (2.0 mg) was incubated overnight in 0.01 M acetic acid (0.9 ml) at 4° C. The resulting solution was emulsified with equal volume (1.0 ml) of […] Freund's Adjuvant containing 5.0 mg heat-killed Mycobacterium tuberculosis. Thereafter, the animal was injected intradermally in the tail base with 100 μl of the emulsion and an additional immunization was repeated 21 days later. Five days later, UBE or UBE1 polypeptide were administered (1 μg/kg thrice a week). The animals were evaluated for the difference in joint thickness (mm) between the indicated time intervals and prior to immunization.

peritoneal macrophages = experiment: Oxidative burst of peritoneal macrophages (luminol luminescence, phorbol myristate acetate); assay type: cell-based, female C57BL/6 mice; conditions: 1 μg/ml UBE; FIG. 19
Description: Macrophages were harvested by peritoneal lavage of female C57BL/6 mice i.p. injected with thioglycolate. 0.2 ml cells (3×10^5/ml), luminol (200 μM), horseradish peroxidase (1.0 unit/ml) and UBE were suspended in Hank's balanced salt solution (HBSS) (final concentrations of the peptide in the reaction mixture are indicated in the figure). The reaction started by the addition of 1 μM phorbol myristate acetate. The reaction was performed in a 96-well plate. Luminescence was measured by Tecan spectrofluoro Plus.

female MRL/lpr mice = experiment: Spontaneous lupus-like syndrome in MRL/lpr mice (Systemic Lupus Erythematosus model); assay type: in vivo
Description: MRL/lpr mice develop a lupus-like syndrome spontaneously. UBE (SEQ ID NO:2) (1 μg/kg) was administered to female MRL/lpr mice thrice a week, starting at age of 12 weeks. Urine was obtained by spontaneous urination and the levels of protein (mg/dl) and erythrocytes (cells/dl) in the urine were evaluated throughout the treatment period (4 weeks) using commercial sticks.
In order to determine the levels of anti-dsDNA antibodies, blood was obtained by cardiac puncture of the MRL/lpr mice after 4 weeks of UBE treatment, and the serum levels of anti-dsDNA antibodies were evaluated using a commercial ELISA kit.
Serum levels of anti-dsDNA antibodies were determined by ELISA with the aid of a commercial kit (Euroimmun, Lubeck, Germany) following the manufacturer's instructions and detection antibodies were purchased for use with same (Bethyl Laboratories, Montgomery, Tex., USA).
Quantitative histopathology analysis of the kidneys was also performed. The kidneys of the mice after 4 weeks of UBE treatment were removed, fixed in formalin, sliced, and stained by H&E and by periodic acid […] stain. Representative histophathologies of the glomeruli and tubulointerstitial areas in control versus UBE treated mice is shown FIGS. 7C and 7D, versus 7E and 7F at 2× and 20×, respectively. The quantitative histopathology analysis is presented in FIG. 7A and FIG. 7B, respectively.
To evaluate the effect of UBE on lymphocyte function in MRL/lpr mice, peripheral lymph nodes and spleen cells were isolated from the control and UBE-treated mice and subjected to FACS analysis probing for CD4, CD8 and B220 marker expression (FIG. 8). Peripheral lymph node cells were positively selected for CD3 expression and the percent of CD3+ cells, which were negative for CD4− and CD8− expression was evaluated. Representative results from control and UBE treated animals are shown in FIGS. 8A and 8B, respectively. […] Spleen cells were similarly evaluated and representative results from control and UBE treated animals are shown in FIGS. 8C and 8D, respectively.
In parallel, peripheral lymph node cells were positively selected for B220+ expression. Representative results from control and UBE treated animals are shown in FIGS. 8G and 8H, respectively. […] Spleen cells were similarly evaluated and representative results from control and UBE treated animals are shown in FIGS. 8I and 8J, respectively.

[1] = after 4 weeks of UBE treatment, 1 μg/kg, FIG. 7

SMPPIVRFDHPFLFIIFEEHTQSPLFVGKVVDPTHK (listed as Mus musculus) [UBE, 36-mer peptide corresponding to residues 378-413 of Mus musculus alpha-1-antitrypsin (serpin a1c)]
survival of the mice treated (mice; UBE 1.0 μg/kg i.p. 30 minutes after LPS): approximately 50% | survival of the mice treated (mice; UBE 10 μg/kg i.p. 30 minutes after LPS): approximately 50% | survival time as compared to controls (mice; both UBE dosages (1.0 and 10 μg/kg i.p.)): significantly prolonged survival | concentration of maximal effect on T cell proliferation (T-lymphocytes): 1 ng/mL | carrageenan-induced inflammation (hind paw swelling) (Male CD1 mice): significant reduction | inflammatory mediators overall (IL6, IL17A, IL21, IL22, IL23, IL31, IFNγ) (Human CD4 cells; FIG. 22A-G): overall trend in reduced inflammatory mediators | IL22 production (Human CD4 cells; FIG. 22D): significantly reduced | IL23 production (Human CD4 cells; FIG. 22E): significantly reduced | IL31 production (Human CD4 cells; FIG. 22F): significantly reduced | joint swelling (difference in joint thickness) (arthritic mice): reduction in joint swelling | oxidative burst of peritoneal macrophages (luminescence) (peritoneal macrophages): suppressed | proteinuria (urinary protein) (female MRL/lpr mice; 1 μg/kg thrice a week from age of 12 weeks, 4 weeks, FIG. 4): significant reduction | urinary microhematuria (female MRL/lpr mice; 1 μg/kg thrice a week from age of 12 weeks, 4 weeks, FIG. 5): significant reduction | anti-dsDNA antibodies in the blood (serum, ELISA) (female MRL/lpr mice; after 4 weeks of UBE treatment, 1 μg/kg, FIG. 6): significant reduction | pathological score of the glomeruli (kidney histopathology) (female MRL/lpr mice; [1]): significant reduction | pathological score of the tubulointerstitial areas (kidney histopathology) (female MRL/lpr mice; [1]): significant reduction | percent of B220+ cells, FACS (female MRL/lpr mice; peripheral lymph nodes): dramatically reduced | double negative CD4−CD8− cells (expressed as percent CD3+), FACS (female MRL/lpr mice; peripheral lymph nodes, FIG. 8E): dramatically reduced | percent of B220+ cells, FACS (female MRL/lpr mice; spleen cells): dramatically reduced | double negative CD4−CD8− cells, FACS (female MRL/lpr mice; spleen cells, FIG. 8F): dramatically reduced

— patent US9518107B2, “Pharmaceutical compositions containing polypeptides derived from α-1 antitrypsin and methods of use thereof” (YISSUM RESEARCH DEVELOPMENT COMPANY OF THE HEBREW …, priority 2010, dated 2016)
